{"source": "PubChem BioAssay AID488840", "about": "(Broad Institute, 2010)", "molecular_target": "Lysine-specific demethylase 4A (Homo sapiens) (UniProt O75164)", "sequence (O75164 whole entry, looked up)": "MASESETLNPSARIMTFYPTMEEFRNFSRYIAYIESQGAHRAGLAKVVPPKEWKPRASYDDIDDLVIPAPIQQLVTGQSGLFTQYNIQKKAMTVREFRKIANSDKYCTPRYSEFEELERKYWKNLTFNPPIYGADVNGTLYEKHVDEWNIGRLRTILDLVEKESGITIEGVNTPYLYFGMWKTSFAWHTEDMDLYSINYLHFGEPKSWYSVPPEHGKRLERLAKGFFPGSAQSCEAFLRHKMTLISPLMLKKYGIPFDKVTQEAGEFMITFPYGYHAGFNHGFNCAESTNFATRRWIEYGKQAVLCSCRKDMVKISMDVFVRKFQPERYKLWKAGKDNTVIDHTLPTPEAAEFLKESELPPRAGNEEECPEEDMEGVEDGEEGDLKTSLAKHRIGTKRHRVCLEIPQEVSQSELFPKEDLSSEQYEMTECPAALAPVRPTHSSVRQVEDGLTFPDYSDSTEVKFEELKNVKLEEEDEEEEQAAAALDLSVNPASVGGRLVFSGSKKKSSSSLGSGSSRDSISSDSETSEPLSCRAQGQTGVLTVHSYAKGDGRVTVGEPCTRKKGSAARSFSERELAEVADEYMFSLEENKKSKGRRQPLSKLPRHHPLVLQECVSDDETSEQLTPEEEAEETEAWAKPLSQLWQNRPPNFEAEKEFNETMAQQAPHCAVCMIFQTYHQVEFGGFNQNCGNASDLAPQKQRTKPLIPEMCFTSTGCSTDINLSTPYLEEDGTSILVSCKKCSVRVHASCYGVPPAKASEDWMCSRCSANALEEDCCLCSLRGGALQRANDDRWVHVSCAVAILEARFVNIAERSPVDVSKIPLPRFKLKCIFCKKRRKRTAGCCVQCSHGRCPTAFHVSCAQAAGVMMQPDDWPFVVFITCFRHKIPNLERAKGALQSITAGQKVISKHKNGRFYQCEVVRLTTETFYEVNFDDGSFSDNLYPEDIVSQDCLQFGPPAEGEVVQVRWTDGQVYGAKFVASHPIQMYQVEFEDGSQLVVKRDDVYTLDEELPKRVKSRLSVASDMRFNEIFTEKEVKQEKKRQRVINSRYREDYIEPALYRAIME", "assay": "inhibition of JMJD2A H3K9me3 demethylation – biochemical, DELFIA europium, cherry-picked samples, selectivity assay for GASC-1 inhibitor project, dose response (AID 488840);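 note: europium signal reports the dimethyl H3K9 product detected by antibody so inhibitors lower it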", "settings": "GST-JMJD2A(1-420) H3K9me3 demethylation", "note": "The source made the active and inactive calls.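 Rule for the calls: active = half-maximal dose of signal decrease from fit no higher than ten times the top valid tested dose; inconclusive = fit invalid, or curve flat with 30 to 70% inhibition; inactive = the rest.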", "data": [{"smiles": "CC(=O)C[C@@H](O)CC(=O)[C@H]1OC(=O)[C@H](C)CCCCc2ccccc21", "values": [{"measurement": "AC50", "value": "> 6 µM (inactive)"}]}]}
